Data: patent US20210009627A1, “CYCLIC DINUCLEOTIDE COMPOUNDS CONTAINING 2-AZA-HYPOXANTHINE OR 6H-PYTAZOLO[1,5-D][1,2,4]TRIZAIN-7-ONE AS STRING AGONISTS” (BOEHRINGER INGELHEIM INTERNATIONAL GMBH, priority 2018, published 2021)
Counter-ions that a name gives are not always drawn.

How the values were obtained:
[1] = biological target: Human STING (hSTING, residues 155-341, wild-type sequence) (Homo sapiens, UniProt Q86WV6, H232R); assay: hSTING binding by differential scanning fluorimetry (DSF); conditions: 100 μM test compound, 3 μM target protein, thermal shift, at least two measurements averaged; read-out: hSTING Tm shift
Experimental: 3) 2 μl of this protein-dye-mixture (25× SYPRO Orange and 15 μM Protein) was added to 8 μl compound solution. Final volume was 10 μL. 4) Certain well positions were used as negative control. 5) The plates were prepared for duplicate measurement and centrifuged for 2 min at 1000 g. 6) In the measurement, 160 cycles of 0.5° C. were used (temperature ramp 15 s/cycle, 15° C. to 95° C.). Data analysis: The dissociation curves were processed in Bio-Rad CFX Manager. Peak type was set to “negative”. At least two measurements were averaged.

[2] = biological target: T1, human STING protein in THP1-Blue ISG cells (Homo sapiens, UniProt Q86WV6, G230A/H232R/R293Q/R71H); assay: In vitro cytokine induction, THP1-Blue ISG reporter cell assay (IRF-inducible SEAP); assay type: cell-based; conditions: 24 hours incubation, SEAP OD at 620 nm
T1 construct: host or cells: THP1-Blue ISG cells
Description: In Vitro Cytokine Induction
Activation of the STING protein expressed in THP1 cells results in an increase of interferon production. By the stable integration of an interferon regulatory factor (IRF)-inducible SEAP (secreted embryonic alkaline phosphatase) reporter construct the functional interferon signaling pathway can be monitored. Using Invivogen's QUANTI-Blue™ colorimetric enzyme assay and a suitable optical density (OD) reader the activity of SEAP can be detected and quantified. This technique could be used to characterize pharmacological modification of the STING protein. Measurements of SEAP activity were performed in THP1-Blue™ ISG cells stably expressing the human STING protein and the IRF-inducible SEAP reporter construct. Cells were cultivated for expansion in RPMI1640 medium with 10% fetal calf serum, 50 μg/ml Penicillin-Streptomycin, 100 μg/ml Zeocin, and 100 μg/ml Normocin in a 37°, 95% humidity and 5% CO2 incubator. Assay-ready cells were stored as frozen stocks.
In preparation for the assay, the cells were thawed in Zeocin-/Normocin-free medium and were distributed into the assay plates with a density of 15000 cells/15 μL per well. […]
At the day of the assay, 75 μl per well of Quanti-Blue reagent was added to all wells of the plate and the plate was incubated another 30 minutes at 37° C. The OD at 620 nm was measured on the EnVision reader (PerkinElmer). […]

[3] = biological target: T2, hSTING WT (Homo sapiens, UniProt Q86WV6, H232R); assay: THP1-Blue ISG hSTING KO reporter cells expressing hSTING WT variant; assay type: cell-based; conditions: WT variant cell line
T2 construct: expressed in transfected cells; host or cells: THP1-Blue ISG hSTING KO clone, retroviral MSCV-ires-GFP-Blasti
Description: (§1) Several single nucleotide polymorphisms have been identified in the human STING gene that may affect the response to cyclic dinucleotides. To determine the activity of compounds of the invention, THP1-Blue ISG reporter cell lines expressing the different human STING variants have been generated. To do so, the endogenous human STING was first deleted using the CRISPR/CAS9 system: THP1-Blue ISG cells were electroporated with ALL-IN-ONE CRISPR plasmids targeting the STING gene (purchased from Sigma encoding the gRNA and GFP as a reporter gene for successful transduction). GFP positive cells then were sorted 24 h post transfection and expanded. Cells were then dispersed in semisolid methocel medium to allow single cell clone isolations. Clones were then screened for cGAMP responsiveness using the Quanti-blue reporter assay. Non-responsive clones were subsequently analysed for STING loss by western blotting and sequencing of the STING locus.
(§2) For the overexpression of the human STING variants, a confirmed THP1-Blue ISG hSTING KO clone was transduced with individual retroviral plasmids (MSCV-ires-GFP-Blasti) encoding the allelic variants of hSTING (WT, HAQ, R232H, AQ and R293Q), respectively. Transduced cells were sorted for different levels of GFP fluorescence and STING allele expression was analysed by western blot.

[4] = biological target: T3, hSTING HAQ (Homo sapiens, UniProt Q86WV6, G230A/H232R/R293Q/R71H); assay: THP1-Blue ISG hSTING KO reporter cells expressing hSTING HAQ variant; assay type: cell-based; conditions: HAQ variant cell line
T3 construct: expressed in transfected cells; host or cells: THP1-Blue ISG hSTING KO clone, retroviral MSCV-ires-GFP-Blasti
Description: as §1, §2

[5] = biological target: T4, hSTING R232H (Homo sapiens, UniProt Q86WV6); assay: THP1-Blue ISG hSTING KO reporter cells expressing hSTING R232H variant; assay type: cell-based; conditions: R232H variant cell line
T4 construct: expressed in transfected cells; host or cells: THP1-Blue ISG hSTING KO clone, retroviral MSCV-ires-GFP-Blasti
Description: as §1, §2

[6] = biological target: T5, hSTING AQ (Homo sapiens, UniProt Q86WV6, G230A/H232R/R293Q); assay: THP1-Blue ISG hSTING KO reporter cells expressing hSTING AQ variant; assay type: cell-based; conditions: AQ variant cell line
T5 construct: expressed in transfected cells; host or cells: THP1-Blue ISG hSTING KO clone, retroviral MSCV-ires-GFP-Blasti
Description: as §1, §2

[7] = biological target: T6, hSTING R293Q (Homo sapiens, UniProt Q86WV6, H232R/R293Q); assay: THP1-Blue ISG hSTING KO reporter cells expressing hSTING R293Q variant; assay type: cell-based; conditions: R293Q variant cell line
T6 construct: expressed in transfected cells; host or cells: THP1-Blue ISG hSTING KO clone, retroviral MSCV-ires-GFP-Blasti
Description: as §1, §2

T1 sequence (Q86WV6 whole entry R71H/G230A/H232R/R293Q): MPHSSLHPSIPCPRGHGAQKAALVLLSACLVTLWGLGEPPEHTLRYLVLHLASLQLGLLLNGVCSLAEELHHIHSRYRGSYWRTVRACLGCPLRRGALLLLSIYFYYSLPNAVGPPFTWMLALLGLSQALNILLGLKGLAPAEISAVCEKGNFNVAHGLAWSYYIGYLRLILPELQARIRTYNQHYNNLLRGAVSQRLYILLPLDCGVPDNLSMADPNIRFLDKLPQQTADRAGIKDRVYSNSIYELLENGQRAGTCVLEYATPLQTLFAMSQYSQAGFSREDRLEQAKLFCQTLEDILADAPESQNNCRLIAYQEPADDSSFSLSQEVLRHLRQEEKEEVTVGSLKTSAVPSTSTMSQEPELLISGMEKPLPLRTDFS
Sequence of Human STING (hSTING, residues 155-341, wild-type sequence) (Q86WV6 155-341 H232R): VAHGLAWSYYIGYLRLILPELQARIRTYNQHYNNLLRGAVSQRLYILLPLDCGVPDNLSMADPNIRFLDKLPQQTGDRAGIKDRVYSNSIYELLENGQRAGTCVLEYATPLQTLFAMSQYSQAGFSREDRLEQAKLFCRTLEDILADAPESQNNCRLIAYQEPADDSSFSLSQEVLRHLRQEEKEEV
T2 sequence (Q86WV6 whole entry H232R): as the sequence (Q86WV6 whole entry R71H/G230A/H232R/R293Q) above, with H71R, A230G, Q293R counted along it
T6 sequence (Q86WV6 whole entry H232R/R293Q): as the sequence (Q86WV6 whole entry R71H/G230A/H232R/R293Q) above, with H71R, A230G counted along it
T4 sequence (Q86WV6 whole entry, stated change not applied): as the sequence (Q86WV6 whole entry R71H/G230A/H232R/R293Q) above, with H71R, A230G, R232H, Q293R counted along it
T5 sequence (Q86WV6 whole entry G230A/H232R/R293Q): as the sequence (Q86WV6 whole entry R71H/G230A/H232R/R293Q) above, with H71R counted along it
T3 sequence (Q86WV6 whole entry R71H/G230A/H232R/R293Q): as the sequence (Q86WV6 whole entry R71H/G230A/H232R/R293Q) above

## Nc1ncnc2c1ncn2[C@@H]1O[C@@H]2COP(=O)(S)O[C@@H]3[C@H](O)[C@@H](COP(=O)(S)O[C@H]2[C@H]1F)O[C@H]3n1cnc2c(=O)[nH]nnc21 (single isomer, unassigned) [Example 1.1, Cyclic 2-azainosine-(2′→5′)-phosphorothioate-2′-F-2′-deoxyadenosine-(3′→5′)-phosphoro-thioate sodium salt]
[1]
  ΔTm at 100 µM: 23.9 °C
[2]
  EC50: 0.16 µM
[3]
  EC50: 510 µM
[4]
  EC50: 510 µM
[5]
  EC50: 510 µM
[6]
  EC50: 510 µM
[7]
  EC50: 510 µM

## Nc1ncnc2c1ncn2[C@@H]1O[C@@H]2COP(=O)(S)O[C@@H]3[C@H](O)[C@@H](COP(=O)(S)O[C@H]2[C@H]1F)O[C@H]3c1cnn2c(=O)[nH]ncc12 (single isomer, unassigned) [Example 2.1, Cyclic 8-δ-D-ribofuranosyl-pyrazolo[1,5-d]-1,2,4-triazin-4(3H)-one-(2′→5′)-phosphorothioate-2′-F-2′-deoxyadenosine-(3′→5′)-phosphorothioate sodium salt]
[1]
  ΔTm at 100 µM: 17.9 °C
[2]
  EC50: 0.14 µM
